Assay results published in patent publication US5593970A, “Heterocyclic anthracycline analogs” (priority 1994, dated 1997).
Counter-ions that a name gives are not always drawn. Like-named read-outs stand apart in the source and are kept apart here.

What was measured:
Experiment in all cases: Microculture tetrazolium assay
Assay type in all cases: cell-based
[1] = test system: T47D
[2] = test system: SKOV3; conditions: read-out: IC50
[3] = test system: LOX; conditions: read-out: IC50
[4] = test system: HT29
[5] = test system: SKVLB; conditions: for VLB/OV3: IC50 ratio SKVLB/SKOV3; for IC50: SKVLB
[6] = Homo sapiens, HT-29, HT29, read-out: IC50

| Compound | IC50 ([1]; Homo sapiens, read-out: IC50) [µM] | IC50 ([2]; Homo sapiens, SK-OV-3, SKOV3) [µM] | IC50 [3] [µM] | IC50 [4, 6] [µM] | IC50 ([5]; read-out: IC50) [µM] | VLB/OV3 [5] | IC50 [5] [µM] | IC50 ([4]; Homo sapiens, HT-29, HT29) [µM] | IC50 ([1]; read-out: IC50) [µM] | IC50 ([2]; SKOV3) [µM] | IC50 ([4]; HT29, read-out: IC50) [µM] | IC50 ([1]; Homo sapiens) [µM] |
| --- | --- | --- | --- | --- | --- | --- | --- | --- | --- | --- | --- | --- |
| C[C@@H]1O[C@@H](O[C@H]2O[C@H](C#N)CC3=C2C(=O)c2cc4ccccc4c(O)c2C3=O)C[C@H](NC(=O)C(F)(F)F)[C@@H]1O [BCH-2007, (1'S,1R,3S)-3-(6-hydroxy-1-(2',3',6'-trideoxy-3'-trifluoroacetamido-4'-hydroxy-L-lyxohexopyranose)-5,12-dioxo-3,4,5,12-tetrahydroanthraceno-[2,3-c]pyran-3-yl)nitrile] | 0.506 | 0.433 | 0.379 | 0.148 | 2.79 | 6.44 |  |  |  |  |  |  |
| CC(=O)[C@@H]1CC2=C(C(=O)c3cc4ccccc4c(O)c3C2=O)[C@@H](O[C@H]2C[C@H](NC(=O)C(F)(F)F)[C@H](I)[C@H](C)O2)O1 [BCH-1617] | 2.43 | 2.15 | 3.04 | 1.2 | 2.96 | 1.38 |  |  |  |  |  |  |
| C[C@@H]1O[C@@H](OC2OC(C#N)Cc3c(O)c4c(c(O)c32)C(=O)c2ccccc2C4=O)C[C@H](N)[C@@H]1O (mixture of isomers) [BCH-2056, (1'S,1R,3S) and (1'S,1S,3R)(5,12-Dihydroxy-1-(2',3',6'-trideoxy-3'-amino-4'-hydroxy-L-lyxohexopyranose)-6,11-dioxo-3,4,5,12-tetrahydroanthraceno-[2,3-c]pyran-3-yl)nitrile] | 0.271 | 0.171 | 0.17 | 0.0832 | 0.598 | 3.50 |  |  |  |  |  |  |
| CCN(CC)C(=O)[C@H]1CC2=C(C(=O)c3cc4ccccc4c(O)c3C2=O)[C@H](O[C@H]2C[C@H](NC(=O)C(F)(F)F)[C@H](O)[C@H](C)O2)O1 [BCH-1653] | 7.09 | 3.22 | 3.92 | 0.885 |  | 1.85 | 5.97 |  |  |  |  |  |
| COCC1Cc2c(O)c3c(c(O)c2C(O[C@H]2C[C@H](N)[C@H](O)[C@H](C)O2)O1)C(=O)c1ccccc1C3=O (mixture of isomers) [BCH-1992, (1'S,1S,3R) and (1'S,1R,3S)-5,12-dihydroxy-3-methoxymethyl-1-(2',3',6'-trideoxy-3'-amino-L-lyxohexopyranose)-1,2,3,4-tetrahydro-(2-oxygen)naphthacene-6,11-dione hydrochloride] | 0.807 | 0.57 | 0.666 |  | 2.74 | 4.81 |  | 0.183 |  |  |  |  |
| 1S,3R-Methyl(1-[2',3',6'-trideoxy-3'-trifluoroacetamido-4'-hydroxy-1,5-dihydro-L-lyxohexopyranose-2-yl)-6,11-dioxo-3,4,5,12-tetrahydroanthraceno[2,3- c]pyran-3-yl)ketone [BCH-2156] |  |  | 0.375 |  | 5.36 | 1.57 |  |  | 2.71 | 3.41 | 1.19 |  |
| CC(=O)[C@H]1CC2=C(C(=O)c3cc4ccccc4c(O)c3C2=O)[C@H](O[C@H]2C[C@H](NC(=O)C(F)(F)F)[C@H](I)[C@H](C)O2)O1 [BCH-1618] |  | 3.26 | 3.75 | 3.63 | 3.21 | .098 |  |  |  |  |  | 3.66 |
| CC(=O)OCC1(C2CC3=C(C(=O)c4c(cc5ccccc5c4OC(C)=O)C3=O)C(O[C@H]3C[C@H](NC(=O)C(F)(F)F)[C@H](O)[C@H](C)O3)O2)OCCCO1 (stereo partly drawn) [BCH-1179] | 4.9 | 5.25 | 10.9 | 4.03 | 8.31 | 1.58 |  |  |  |  |  |  |
| CO[C@H]1S[C@H](C(C)=O)CC2=C1C(=O)c1cc3ccccc3c(O)c1C2=O (relative stereo) [BCH-1164, Trans-3-aceto-1-methoxy-6-hydroxy-1,2,3,4,5,12-hexahydro-2-(sulfur)naphthacene-5,12-dione] | 12.2 | 9.36 | > 100 |  | 9.2 | 0.98 |  | 6.97 |  |  |  |  |
| CC[C@@H]1Cc2c(O)c3c(c(O)c2[C@@H](O[C@H]2C[C@H](N)[C@H](O)[C@H](C)O2)O1)C(=O)c1ccccc1C3=O [BCH-2016, (1'S,1R, 3R)-3-ethyl-5,12-dihydroxy-1-(2',3',6'-trideoxy-3'-amino-L-lyxohexopyranose)-1,2,3,4-tetrahydro-(2-oxygen)-naphthacene-6,11-dione-hydrochloride] | 0.345 | 0.0934 | 0.0597 | 0.13 | 0.67 | 7.17 |  |  |  |  |  |  |
| CC(=O)C1CC2=C(C(=O)c3cc4ccccc4c(O)c3C2=O)C(O[C@H]2C[C@H](NC(=O)C(F)(F)F)[C@@H](O)[C@H](C)O2)O1 (stereo partly drawn) [BCH-1637] |  | 2.28 | 2.07 | 0.691 | 3.82 | 1.68 |  |  |  |  |  | 5.24 |

Continued, in another order:

| IC50 ([1]; Homo sapiens, read-out: IC50) [µM] | IC50 ([2]; Homo sapiens, SK-OV-3, SKOV3) [µM] | IC50 [3] [µM] | IC50 [4, 6] [µM] | IC50 ([5]; read-out: IC50) [µM] | Compound | VLB/OV3 [5] | IC50 [5] [µM] | IC50 ([4]; Homo sapiens, HT-29, HT29) [µM] | IC50 ([1]; read-out: IC50) [µM] | IC50 ([2]; SKOV3) [µM] | IC50 ([4]; HT29, read-out: IC50) [µM] | IC50 ([1]; Homo sapiens) [µM] |
| --- | --- | --- | --- | --- | --- | --- | --- | --- | --- | --- | --- | --- |
| 100 | 100 | 98.5 | 100 | 56.3 | CC(=O)Oc1c2c(c(O)c3ccccc13)C(=O)C1=C(COC(C3(C)OCCCO3)C1)C2=O (stereo not drawn) [BCH-1111] |  |  |  |  |  |  |  |
| > 100 | > 100 | > 100 | > 100 | > 100 | CC[C@@H]1Cc2c(O)c3c(c(O)c2[C@@H](O)O1)C(=O)c1ccccc1C3=O (relative stereo) [BCH-1174, (trans)-6,11-dioxo-3-ethyl-1,5,12-trihydroxy-3,4,5,12-tetrahydroanthraceno-[2,3-c]-pyran] |  |  |  |  |  |  |  |
| > 100 | > 100 | > 100 | > 100 | > 100 | CC(F)(F)C1CC2=C(CO1)C(=O)c1c(cc3ccccc3c1O)C2=O (stereo not drawn) [BCH-1639, 3-(1',1'-difluoroethyl)-6 and 11-hydroxy-1,2,3,4-tetrahydro-(2-oxygen)-naphthacene-5,12-dione] |  |  |  |  |  |  |  |
|  |  | 4.02 |  | 13 | CC(=O)[C@@H]1CC2=C(C(=O)c3cc4ccccc4c(O)c3C2=O)[C@H](OC[C@@H]2COC(C)(C)O2)S1 [BCH-1993] | 3.10 |  |  | 9.81 | 4.19 | 3.47 |  |
| 3.11 | 0.573 | 2.41 | 2.59 | 4.25 | COC(=O)[C@@H](N)COC1OC(C(C)=O)CC2=C1C(=O)c1cc3ccccc3c(O)c1C2=O (mixture of isomers) [BCH-1657, (1S,2'S,3R) and (1R, 2'S,3S)-Methyl-{6-hydroxyl-1[O-serinemethyl ester]-5,12-dioxo-3,4,5,12-tetrahydroanthraceno-[2,3-c]pyran-3-yl}ketone hydrochloride salt] | 7.42 |  |  |  |  |  |  |
| 3.73 | 2.02 | 1.37 | 0.597 | 3.83 | CC(=O)C1CC2=C(C(=O)c3cc4ccccc4c(O)c3C2=O)C(OC[C@H](O)CO)S1 (stereo partly drawn) [BCH-1645] | 1.90 |  |  |  |  |  |  |
| 6.51 | 4.7 | 1.4 | 1.06 | 12 | CC(=O)C1CC2=C(C(=O)c3cc4ccccc4c(O)c3C2=O)C(O[C@H]2C[C@H](NC(=O)C(F)(F)F)[C@H](OS(C)(=O)=O)[C@H](C)O2)O1 (stereo partly drawn) [BCH-2094] | 2.55 |  |  |  |  |  |  |
| 9.09 | 5.16 | 5.32 | 5.47 | 2.83 | CC1(C2CC3=C(CO2)C(=O)c2c(cc4ccccc4c2O)C3=O)OCCO1 (stereo not drawn) [BCH-1112] | 0.55 |  |  |  |  |  |  |
| 6.79 | 4.27 | 2.14 | > 100 | 14.7 | CC(=O)C1CC2=C(C(=O)c3cc4ccccc4c(O)c3C2=O)C(O[C@H]2C[C@H](NC(=O)C(F)(F)F)[C@H](OC(=O)c3ccc([N+](=O)[O-])cc3)[C@H](C)O2)O1 (mixture of isomers) [BCH-1122, (1S',1R,3S) and (1'S,1S,3R)-methyl (6-hydroxy-1-(2',3',6'-trideoxy-3'-trifluoroacetamido-4'-O-p-nitrobenzoyl-L-lyxohexopyranose)-6-hydroxy-5,12-dioxo-3,4,5,12-tetra-hydroanthraceno[2,3-C]pyran-3-yl) ketone] | 3.44 |  |  |  |  |  |  |
| 12 | 19.2 | 43.7 | 7.11 | 83 | CC(=O)[C@@H]1CC2=C(C(=O)c3c(cc4ccccc4c3O)C2=O)[C@@H](O)O1 (relative stereo) [BCH-722] | 4.32 |  |  |  |  |  |  |
| 4.97 | 2.29 | 2.81 | 6.28 | 2.02 | CC(=O)C1CC2=C(C(=O)c3cc4ccccc4c(O)c3C2=O)C(OC[C@@H]2COC(C)(C)O2)S1 (stereo partly drawn) [BCH-1660] | 0.88 |  |  |  |  |  |  |
| 0.243 | 1.03 | 1.49 | 2.69 | 5.16 | C[C@@H]1O[C@@H](O[C@@H]2O[C@@H](COc3ccccc3)CC3=C2C(=O)c2cc4ccccc4c(O)c2C3=O)C[C@H](NC(=O)C(F)(F)F)[C@@H]1O [BCH-2057, (1'S,1S,3R)-5,12-dioxo-6-hydroxy-3-phenyloxymethyl-1-(2',3',6'-trideoxy-3'-trifluoroacetamido-L-lyxohexopyranose)-3,4,5,12-tetrahydroanthraceno-[2,3-c]pyran] | 5.01 |  |  |  |  |  |  |
| 3.83 | 1.5 | 100 | 2.8 | 2.31 | CC1(C2CC3=C(CO2)C(=O)c2c(cc4ccccc4c2O)C3=O)OCCCO1 (stereo not drawn) [BCH-1108] | 1.5 |  |  |  |  |  |  |
| 11.1 | 26.1 | 31.3 | 7.6 | 21.3 | CC(=O)C1Cc2c(O)c3c(c(O)c2C(O)O1)C(=O)c1ccccc1C3=O (stereo not drawn) [BCH-1116] | 0.82 |  |  |  |  |  |  |
